Data reported in US12351570B2 (MERCK PATENT GMBH, priority 2018, dated 2025).

System: MDA-MB-231 cells
Test: Extracellular lactate production inhibition after 4 h, MDA-MB-231
Conditions: Homo sapiens, MDA-MB-231

| IC50 | SMILES |
| --- | --- |
| 1 to 100 µM | Cc1nc(C(=O)O)ccc1C#Cc1ccccc1NS(=O)(=O)c1cccc2cccnc12 [Compound 60, 6-methyl-5-{2-[2-(quinoline-8-sulfonamido)phenyl]ethynyl}pyridine-2-carboxylic acid] |
| 0.1 to 1 µM | Cc1c(S(=O)(=O)Nc2ccccc2C#Cc2ccc(C(=O)O)nc2)ccc2ccccc12 [Compound 97, 5-{2-[2-(1-methylnaphthalene-2-sulfonamido)phenyl]ethynyl}pyridine-2-carboxylic acid] |
| 0.1 to 1 µM | Cc1ccc2cccnc2c1S(=O)(=O)Nc1cc(Br)ccc1C#Cc1ccc(C(=O)O)nc1 [Compound 186, 5-{2-[4-bromo-2-(7-methylquinoline-8-sulfonamido)phenyl]ethynyl}pyridine-2-carboxylic acid] |
| 1 to 100 µM | COc1ccc(S(=O)(=O)Nc2ccccc2C#Cc2cnc3c(c2)CN(C)C3=O)c2ncccc12 [Compound 245, 5-methoxy-N-[2-(2-{6-methyl-7-oxo-5H,6H,7H-pyrrolo[3,4-b]pyridin-3-yl}ethynyl)phenyl]quinoline-8-sulfonamide] |
| 0.001 to 0.01 µM | COc1cc(C(=O)O)ncc1C#Cc1ccccc1N(C=O)Cc1ccc(-c2ccccc2)cc1 [Compound 192, 5-(2-{2-[N-({[1,1′-biphenyl]-4-yl}methyl)formamido]phenyl}ethynyl)-4-methoxypyridine-2-carboxylic acid] |
| 0.01 to 0.1 µM | COc1ccc(S(=O)(=O)Nc2cc(Cl)ccc2C#Cc2ccc(C(=O)O)nc2)c2ncccc12 [Compound 199, 5-{2-[4-chloro-2-(5-methoxyquinoline-8-sulfonamido)phenyl]ethynyl}pyridine-2-carboxylic acid] |
| 0.001 to 0.01 µM | CCc1ccc(NS(=O)(=O)c2c(C)ccc3cccnc23)c(C#Cc2ccc(C(=O)O)nc2)c1 [Compound 417, 5-{2-[5-ethyl-2-(7-methylquinoline-8-sulfonamido)phenyl]ethynyl}pyridine-2-carboxylic acid] |
| 0.01 to 0.1 µM | COc1ccc(S(=O)(=O)Nc2ccc(C)cc2C#Cc2ccc(C(=O)O)nc2)c(C)c1C [Compound 413, 5-{2-[2-(4-methoxy-2,3-dimethylbenzenesulfonamido)-5-methylphenyl]ethynyl}pyridine-2-carboxylic acid] |
| 0.01 to 0.1 µM | O=C(O)c1ccc(C#Cc2ccccc2NS(=O)(=O)c2c(Br)ccc3c(Cl)ccnc23)cn1 [Compound 319, 5-{2-[2-(7-bromo-4-chloroquinoline-8-sulfonamido)phenyl]ethynyl}pyridine-2-carboxylic acid] |
| 1 to 100 µM | Cc1ccc2cccnc2c1S(=O)(=O)Nc1ccccc1C#Cc1ccc(C(=O)O)nc1C [Compound 100, 6-methyl-5-{2-[2-(7-methylquinoline-8-sulfonamido)phenyl]ethynyl}pyridine-2-carboxylic acid] |
| 1 to 100 µM | CNc1ccnc2c(S(=O)(=O)Nc3ccccc3C#Cc3cnc(C(=O)O)cc3C)cccc12 [Compound 425, 4-Methyl-5-[2-(4-methylamino-quinoline-8-sulfonylamino)-phenylethynyl]-pyridine-2-carboxylic acid] |
| 1 to 100 µM | O=C(O)c1ccc(C#Cc2ccccc2NS(=O)(=O)c2ccc3occc3c2)cn1 [Compound 297, 5-{2-[2-(1-benzofuran-5-sulfonamido)phenyl]ethynyl}pyridine-2-carboxylic acid] |
| 0.01 to 0.1 µM | COc1cc(C(=O)O)ncc1C#Cc1ccccc1NS(=O)(=O)c1cccc2cccnc12 [Compound 366, 4-methoxy-5-{2-[2-(quinoline-8-sulfonamido)phenyl]ethynyl}pyridine-2-carboxylic acid] |
| 0.01 to 0.1 µM | COc1cc(C(=O)O)ncc1C#Cc1ccccc1NS(=O)(=O)N1CCC(C)C2CCCCC21 (centres unmarked) [Compound 222, 4-methoxy-5-[2-(2-{[(4-methyl-deca-hydroquinolin-1-yl)sulfonyl]amino}-phenyl)ethynyl]pyridine-2-carboxylic acid] |
| 1 to 100 µM | O=C(O)c1ccc(C#Cc2ccccc2NS(=O)(=O)c2cccc(Br)c2)cn1 [Compound 95, 5-{2-[2-(3-bromobenzenesulfonamido)phenyl]-ethynyl}pyridine-2-carboxylic acid] |
| 0.01 to 0.1 µM | O=C(O)c1ccc(C#Cc2ccccc2NS(=O)(=O)c2cccc3c(Cl)c(Cl)cnc23)cn1 [Compound 298, 5-{2-[2-(3,4-dichloroquinoline-8-sulfonamido)phenyl]ethynyl}pyridine-2-carboxylic acid] |
| 0.1 to 1 µM | COc1cc(C(=O)NO)ncc1C#Cc1ccccc1NS(=O)(=O)c1ccc(OC)c2cccnc12 [Compound 224, N-hydroxy-4-methoxy-5-{2-[2-(5-methoxyquinoline-8-sulfonamido)phenyl-]ethynyl}pyridine-2-carboxamide] |

The next lines start with the molecule.

| SMILES | IC50 |
| --- | --- |
| COc1ccc(C#Cc2ccc(C(=O)O)cc2)c(NS(=O)(=O)c2ccc3ccccc3c2)c1 [Compound 19, 4-{2-[4-methoxy-2-(naphthalene-2-sulfonamido)phenyl]ethynyl}benzoic acid] | 0.1 to 1 µM |
| O=C(O)c1ccc(C#Cc2ccccc2NS(=O)(=O)c2cccc3cc(Cl)cnc23)cn1 [Compound 271, 5-[2-(3-Chloro-quinoline-8-sulfonyl-amino)-phenylethynyl]-pyridine-2-carboxylic acid] | 0.1 to 1 µM |
| COc1cc(C#Cc2ccccc2NS(=O)(=O)c2c(C)ccc3cccnc23)c(C)cc1C(=O)O [Compound 365, 2-methoxy-5-methyl-4-{2-[2-(7-methylquinoline-8-sulfonamido)-phenyl]ethynyl}benzoic acid] | 0.1 to 1 µM |
| COc1ccc(S(=O)(=O)Nc2ccccc2C#Cc2ccc(C(N)=O)nc2)c2ncccc12 [Compound 154, 5-{2-[2-(5-methoxyquinoline-8-sulfonamido)phenyl]ethynyl}pyridine-2-carboxamide] | 1 to 100 µM |
| O=C(O)c1ccc(C#Cc2ccccc2C[S+]([O-])c2ccc3ccccc3c2)cc1 (centres unmarked) [Compound 20, 4-(2-{2-[(naphthalene-2-sulfinyl)methyl]phenyl}ethynyl)benzoic acid] | 1 to 100 µM |
| O=C(O)c1ccc(C#Cc2ccccc2NS(=O)(=O)c2cccc3ncccc23)cc1 [Compound 35, 4-{2-[2-(quinoline-5-sulfonamido)phenyl]ethynyl}benzoic acid] | 1 to 100 µM |
| O=CN(Cc1ccc2ccccc2c1)c1ccccc1C#Cc1ccc(C(=O)O)nc1 [Compound 115, 5-[2-(2-{N-[(naphthalen-2-yl)methyl]formamido}phenyl)ethynyl]-pyridine-2-carboxylic acid] | 0.1 to 1 µM |
| COc1cc(C(=O)N(C)C)ncc1C#Cc1cc(Cl)ccc1NS(=O)(=O)c1ccc(OC)c2cccnc12 [Compound 373, 5-{2-[5-chloro-2-(5-methoxyquinoline-8-sulfonamido)phenyl]ethynyl}-4-methoxy-N,N-dimethylpyridine-2-carboxamide] | 1 to 100 µM |
| COc1ccc(S(=O)(=O)Nc2ccccc2C#Cc2ccc(C(=O)NO)nc2)c2ncccc12 [Compound 216, N-hydroxy-5-{2-[2-(5-methoxyquinoline-8-sulfonamido)phenyl]ethynyl}pyridine-2-carboxamide] | 0.1 to 1 µM |
| O=C(O)c1ncc(C#Cc2ccccc2NS(=O)(=O)c2cccc3ccccc23)cc1F [Compound 279, 3-fluoro-5-{2-[2-(naphthalene-1-sulfon-amido)phenyl]ethynyl}pyridine-2-carboxylic acid] | 1 to 100 µM |
| COC(=O)c1ncc(C#Cc2cc(F)ccc2NS(=O)(=O)c2ccc(-c3ccccc3)cc2)cc1C [Compound 313, methyl 5-[2-(2-{[1,1′-biphenyl]-4-sulfonamido}-5-fluorophenyl)ethynyl]-3-methylpyridine-2-carboxylate] | 1 to 100 µM |
| COc1ccc(S(=O)(=O)Nc2ccccc2C#Cc2ccc(C(=O)O)nc2)c(OC)c1 [Compound 299, 5-{2-[2-(2,4-dimethoxybenzenesulfon-amido)phenyl]ethynyl}pyridine-2-carboxylic acid] | 1 to 100 µM |
| O=C(O)c1ccc(C#Cc2ccccc2NS(=O)(=O)c2cccc3c(N4CCOCC4)ccnc23)cn1 [Compound 422, 5-[2-(4-Morpholin-4-yl-quinoline-8-sulfonylamino)-phenylethynyl]-pyridine-2-carboxylic acid] | 1 to 100 µM |
| COC(=O)c1cc(Cl)c(C#Cc2ccccc2NS(=O)(=O)c2ccc(OC)c3cccnc23)cn1 [Compound 157, methyl 4-chloro-5-{2-[2-(5-methoxyquinoline-8-sulfonamido)phenyl]ethynyl}pyridine-2-carboxylate] | 0.01 to 0.1 µM |
| COc1ccc(NS(=O)(=O)c2ccccc2C#Cc2ccc(C(=O)O)nc2)c(C)c1C [Compound 430, 5-(2-{2-[(4-methoxy-2,3-dimethylphenyl)sulfamoyl]phenyl}ethynyl)pyridine-2-carboxylic acid] | 1 to 100 µM |
| O=C(O)c1ccc(C#Cc2ccccc2NS(=O)(=O)c2c(F)ccc3c(Cl)ccnc23)cn1 [Compound 320, 5-{2-[2-(4-chloro-7-fluoroquinoline-8-sulfonamido)phenyl]ethynyl}pyridine-2-carboxylic acid] | 0.01 to 0.1 µM |
| COc1ccc(S(=O)(=O)Nc2cc(Cl)c(Cl)cc2C#Cc2ccc(C(=O)O)nc2)c2ncccc12 [Compound 190, 5-{2-[4,5-dichloro-2-(5-methoxyquinoline-8-sulfonamido)phenyl]ethynyl}pyridine-2-carboxylic acid] | 0.01 to 0.1 µM |
| COc1ccc(S(=O)(=O)Nc2ccccc2C#Cc2ccc(C(=O)O)cc2)cc1OC [Compound 263, 4-[2-(3,4-Dimethoxy-benzenesulfonyl-amino)-phenylethynyl]-benzoic acid] | 1 to 100 µM |
| COC(=O)c1ccc(C#Cc2cc([N+](=O)[O-])ccc2NS(=O)(=O)c2c(C)ccc3cccnc23)cn1 [Compound 244, methyl 5-{2-[2-(7-methylquinoline-8-sulfonamido)-5-nitrophenyl]ethynyl}-pyridine-2-carboxylate] | 0.01 to 0.1 µM |
| N#Cc1cc(C#Cc2ccccc2NS(=O)(=O)c2ccc3ccccc3c2)ccc1C(=O)O [Compound 24, 2-cyano-4-{2-[2-(naphthalene-2-sulfonamido)phenyl]ethynyl}benzoic acid] | 1 to 100 µM |
| COc1ccc(S(=O)(=O)Nc2ccc(-c3ccccc3)cc2C#Cc2ccc(C(=O)O)nc2)c2ncccc12 [Compound 350, 5-{2-[4-(5-methoxyquinoline-8-sulfonamido)-[1,1′-biphenyl]-3-yl]ethynyl}pyridine-2-carboxylic acid] | 0.1 to 1 µM |
